Reference: the supplement of paper PMC10307832

Columns and labels:
Experiment in all cases: relative viability (nuclei count vs DMSO), 5 days (fraction); higher = more cells survive
EMC-BAC-2 = tested on: EMC-BAC-2
Summary of the method: (§1)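 Medians of duplicate plates are given as relative viability. That measure is the nuclei count in treated wells divided by the count in vehicle wells. Counts were taken on 4× images of lung cancer cell lines in 1536-well plates, 5 days after pin-tool dosing the day after seeding with one drug alone or a fixed anchor-drug dose plus five library-drug doses (not always all listed) in √10 steps.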

PC-3 [JPC-3] = tested on: PC-3 [JPC-3]
Summary of the method: as §1

HARA = tested on: HARA
Summary of the method: as §1

NCI-H3122 = tested on: NCI-H3122
Summary of the method: as §1

NCI-H2228 = tested on: NCI-H2228
Summary of the method: as §1

NCI-H1792 = tested on: NCI-H1792
Summary of the method: as §1

A-427 = tested on: A-427
Summary of the method: as §1

SK-MES-1 = tested on: SK-MES-1
Summary of the method: as §1

ABC-1 = tested on: ABC-1
Summary of the method: as §1

NCI-H322M = tested on: NCI-H322M
Summary of the method: as §1

LXF-289 = tested on: LXF-289
Summary of the method: as §1

SW 1573 = tested on: SW 1573
Summary of the method: as §1

HOP-62 = tested on: HOP-62
Summary of the method: as §1

NCI-H727 = tested on: NCI-H727
Summary of the method: as §1

NCI-H1993 = tested on: NCI-H1993
Summary of the method: as §1

NCI-H1944 = tested on: NCI-H1944
Summary of the method: as §1

LK-2 = tested on: LK-2
Summary of the method: as §1

NCI-H2009 = tested on: NCI-H2009
Summary of the method: as §1

NCI-H596 = tested on: NCI-H596
Summary of the method: as §1

NCI-H2170 = tested on: NCI-H2170
Summary of the method: as §1

SMILES: Cc1sc2c(c1C)C(c1ccc(Cl)cc1)=N[C@@H](CC(=O)OC(C)(C)C)c1nnc(C)n1-2 [JQ1] + CS(=O)(=O)N1CCN(Cc2cc3nc(-c4cccc5[nH]ncc45)nc(N4CCOCC4)c3s2)CC1 [Pictilisib] (partner 1 µM)
- relative viability (EMC-BAC-2; first compound 0.04 µM): 0.551
- relative viability (EMC-BAC-2; first compound 0.1265 µM): 0.499
- relative viability (EMC-BAC-2; first compound 0.4 µM): 0.565
- relative viability (EMC-BAC-2; first compound 1.265 µM): 0.27
- relative viability (EMC-BAC-2; first compound 4 µM): 0.26
- relative viability (PC-3 [JPC-3]; first compound 0.04 µM): 0.69
- relative viability (PC-3 [JPC-3]; first compound 0.1265 µM): 0.727
- relative viability (PC-3 [JPC-3]; first compound 0.4 µM): 0.443
- relative viability (PC-3 [JPC-3]; first compound 1.265 µM): 0.501
- relative viability (PC-3 [JPC-3]; first compound 4 µM): 0.382
- relative viability (HARA; first compound 0.04 µM): 0.505
- relative viability (HARA; first compound 0.1265 µM): 0.224
- relative viability (HARA; first compound 0.4 µM): 0.379
- relative viability (HARA; first compound 1.265 µM): 0.177
- relative viability (HARA; first compound 4 µM): 0.0809
- relative viability (NCI-H3122; first compound 0.04 µM): 0.576
- relative viability (NCI-H3122; first compound 0.1265 µM): 0.624
- relative viability (NCI-H3122; first compound 0.4 µM): 0.675
- relative viability (NCI-H3122; first compound 1.265 µM): 0.425
- relative viability (NCI-H3122; first compound 4 µM): 0.445
- relative viability (NCI-H2228; first compound 0.04 µM): 0.372
- relative viability (NCI-H2228; first compound 0.1265 µM): 0.327
- relative viability (NCI-H2228; first compound 0.4 µM): 0.259
- relative viability (NCI-H2228; first compound 1.265 µM): 0.245
- relative viability (NCI-H2228; first compound 4 µM): 0.201
- relative viability (NCI-H1792; first compound 0.04 µM): 0.273
- relative viability (NCI-H1792; first compound 0.4 µM): 0.31
- relative viability (NCI-H1792; first compound 1.265 µM): 0.188
- relative viability (NCI-H1792; first compound 4 µM): 0.174
- relative viability (A-427; first compound 0.04 µM): 0.81
- relative viability (A-427; first compound 0.1265 µM): 0.748
- relative viability (A-427; first compound 0.4 µM): 0.674
- relative viability (A-427; first compound 1.265 µM): 0.511
- relative viability (A-427; first compound 4 µM): 0.465
- relative viability (SK-MES-1; first compound 0.04 µM): 0.351
- relative viability (SK-MES-1; first compound 0.1265 µM): 0.299
- relative viability (SK-MES-1; first compound 0.4 µM): 0.298
- relative viability (SK-MES-1; first compound 1.265 µM): 0.179
- relative viability (SK-MES-1; first compound 4 µM): 0.202
- relative viability (ABC-1; first compound 0.04 µM): 0.699
- relative viability (ABC-1; first compound 0.1265 µM): 0.545
- relative viability (ABC-1; first compound 0.4 µM): 0.512
- relative viability (ABC-1; first compound 1.265 µM): 0.387
- relative viability (ABC-1; first compound 4 µM): 0.365
- relative viability (NCI-H322M; first compound 0.04 µM): 0.478
- relative viability (NCI-H322M; first compound 0.1265 µM): 0.559
- relative viability (NCI-H322M; first compound 0.4 µM): 0.439
- relative viability (NCI-H322M; first compound 1.265 µM): 0.398
- relative viability (NCI-H322M; first compound 4 µM): 0.358
- relative viability (LXF-289; first compound 0.04 µM): 0.792
- relative viability (LXF-289; first compound 0.1265 µM): 0.783
- relative viability (LXF-289; first compound 0.4 µM): 0.629
- relative viability (LXF-289; first compound 1.265 µM): 0.462
- relative viability (LXF-289; first compound 4 µM): 0.409
- relative viability (SW 1573; first compound 0.04 µM): 0.486
- relative viability (SW 1573; first compound 0.1265 µM): 0.443
- relative viability (SW 1573; first compound 0.4 µM): 0.421
- relative viability (SW 1573; first compound 1.265 µM): 0.212
- relative viability (SW 1573; first compound 4 µM): 0.221
- relative viability (HOP-62; first compound 0.04 µM): 0.815
- relative viability (HOP-62; first compound 0.1265 µM): 0.56
- relative viability (HOP-62; first compound 0.4 µM): 0.249
- relative viability (HOP-62; first compound 1.265 µM): 0.0959
- relative viability (HOP-62; first compound 4 µM): 0.101
- relative viability (NCI-H727; first compound 0.04 µM): 0.371
- relative viability (NCI-H727; first compound 0.1265 µM): 0.554
- relative viability (NCI-H727; first compound 0.4 µM): 0.205
- relative viability (NCI-H727; first compound 1.265 µM): 0.233
- relative viability (NCI-H727; first compound 4 µM): 0.309
- relative viability (NCI-H1993; first compound 0.04 µM): 0.883
- relative viability (NCI-H1993; first compound 0.1265 µM): 0.788
- relative viability (NCI-H1993; first compound 0.4 µM): 0.888
- relative viability (NCI-H1993; first compound 1.265 µM): 0.635
- relative viability (NCI-H1993; first compound 4 µM): 0.846
- relative viability (NCI-H1944; first compound 0.04 µM): 0.357
- relative viability (NCI-H1944; first compound 0.1265 µM): 0.332
- relative viability (NCI-H1944; first compound 0.4 µM): 0.311
- relative viability (NCI-H1944; first compound 1.265 µM): 0.288
- relative viability (NCI-H1944; first compound 4 µM): 0.307
- relative viability (LK-2; first compound 0.04 µM): 0.514
- relative viability (LK-2; first compound 0.1265 µM): 0.511
- relative viability (LK-2; first compound 0.4 µM): 0.35
- relative viability (LK-2; first compound 1.265 µM): 0.223
- relative viability (LK-2; first compound 4 µM): 0.226
- relative viability (NCI-H2009; first compound 0.04 µM): 0.767
- relative viability (NCI-H2009; first compound 0.1265 µM): 0.534
- relative viability (NCI-H2009; first compound 0.4 µM): 0.33
- relative viability (NCI-H2009; first compound 1.265 µM): 0.205
- relative viability (NCI-H2009; first compound 4 µM): 0.245
- relative viability (NCI-H596; first compound 0.04 µM): 0.412
- relative viability (NCI-H596; first compound 0.1265 µM): 0.395
- relative viability (NCI-H596; first compound 0.4 µM): 0.477
- relative viability (NCI-H596; first compound 1.265 µM): 0.365
- relative viability (NCI-H596; first compound 4 µM): 0.293
- relative viability (NCI-H2170; first compound 0.04 µM): 0.293
- relative viability (NCI-H2170; first compound 0.1265 µM): 0.292
- relative viability (NCI-H2170; first compound 0.4 µM): 0.261
- relative viability (NCI-H2170; first compound 1.265 µM): 0.188
- relative viability (NCI-H2170; first compound 4 µM): 0.152
